This note sets out measurements from paper PMC8492656, “Machine learning-guided acyl-ACP reductase engineering for improved in vivo fatty alcohol production” (Nature Communications, 2021).

This assay addresses T1, MA-ACR (parent A, A-AAAAAAAA) (Marinobacter nauticus, UniProt A1U3L3).
T1 construct: gene Maqu_2507; full-length two-domain enzyme (N-terminal AHR, C-terminal ATR), pET28, E. coli host, purified by the same method as His-tagged E. coli ACP; reported elsewhere as tetrameric
T1 sequence (A1U3L3 1-661): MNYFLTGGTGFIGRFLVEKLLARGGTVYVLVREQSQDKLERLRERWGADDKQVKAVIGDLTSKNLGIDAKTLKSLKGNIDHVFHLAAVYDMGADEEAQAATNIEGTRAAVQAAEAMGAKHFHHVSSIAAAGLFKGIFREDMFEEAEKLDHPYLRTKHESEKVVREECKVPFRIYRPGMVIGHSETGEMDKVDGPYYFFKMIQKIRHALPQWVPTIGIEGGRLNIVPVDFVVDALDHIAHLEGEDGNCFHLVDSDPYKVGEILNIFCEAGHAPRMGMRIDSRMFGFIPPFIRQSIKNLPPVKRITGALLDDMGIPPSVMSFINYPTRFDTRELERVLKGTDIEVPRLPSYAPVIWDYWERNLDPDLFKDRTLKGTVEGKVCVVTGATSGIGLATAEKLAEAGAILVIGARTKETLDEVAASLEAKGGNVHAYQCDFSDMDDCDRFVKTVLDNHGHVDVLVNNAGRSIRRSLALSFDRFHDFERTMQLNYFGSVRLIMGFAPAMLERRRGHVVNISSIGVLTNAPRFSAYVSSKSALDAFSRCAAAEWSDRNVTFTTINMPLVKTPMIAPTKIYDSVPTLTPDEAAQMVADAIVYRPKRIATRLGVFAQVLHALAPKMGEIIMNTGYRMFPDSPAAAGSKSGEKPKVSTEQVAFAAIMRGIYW
The experiment in a line: DTNB release assay, A412, 96-well plate. The format is biochemical. As to conditions: 200 µM NADPH, 1 µM enzyme, 250-252 µM DTNB, 20 mM Tris, 50 mM NaCl, pH 7.

On to `CCCCCCCCCCCCCCCC(=O)SCCNC(=O)CCNC(=O)[C@H](O)C(C)(C)COP(=O)(O)OP(=O)(O)OC[C@H]1O[C@@H](n2cnc3c(N)ncnc32)[C@H](O)[C@@H]1OP(=O)(O)O` [palmitoyl-CoA], for which the “DTNB release assay, A412, 96-well plate” value is recorded as “ATR-83 has a lower activity than the parents on palmitoyl-CoA”.
